Measurements reported in patent US20240100072A1, “SUBCUTANEOUSLY ADMINISTERED TREATMENTS FOR ADVANCED PARKINSON'S DISEASE” (AbbVie Inc., priority 2021, published 2024).

Key:
plasma proteins = assay: Distribution: erythrocyte/plasma partitioning, plasma protein binding, blood-brain barrier; format: in vitro ADME
Description: Levodopa is transported into the brain by the carrier mechanism for large neutral amino acids.

[1] = Metabolism and elimination; details: in vivo; for half-life: human
Description: Levodopa is mainly eliminated via metabolism by the aromatic amino acid decarboxylase (AAAD) and the catechol-O-methyl-transferase (COMT) enzymes. Other routes of metabolism are transamination and oxidation. The decarboxylation of levodopa to dopamine by AAAD is the major enzymatic pathway when no enzyme inhibitor is co-administered. O-methylation of levodopa by COMT forms 3-O-methyldopa. […] These 2 metabolites are primarily eliminated in the urine unchanged or as glucuronide conjugates.

| Compound | blood-brain barrier passage (plasma proteins) | half-life [1] | unchanged drug as share of the total urinary excretion [1] | binding to plasma proteins (plasma proteins) | partitioning ratio between erythrocytes and plasma (plasma proteins) |
| --- | --- | --- | --- | --- | --- |
| C[C@@](Cc1ccc(O)c(O)c1)(NN)C(=O)O [carbidopa] | does not cross the blood-brain barrier | ~2 h | 30% | – | – |
| N[C@@H](Cc1ccc(O)c(O)c1)C(=O)O [levodopa, L-3,4-dihydroxyphenylalanine] | – | ~1.5 h | – | < 10% | approximately 1 |
